Measured values from US20260317367A1, “SALTS INCLUDING CRYSTALLINE SALTS OF 25-HYDROXY-CHOLEST-5-EN-3-SULFATE AND METHODS FOR PREPARING SAME” (Durect Corporation, priority 2022, published 2026).
Where a name gives a salt, the structure may show the parent alone. Values belong to the molecule of their own block, whether it stands above or below them.

Key:
[1] = X-ray powder diffraction before and after DVS (form stability); format: physicochemical; details: 5% to 95% RH
Procedure: XRPD patterns were collected with a PANalytical X'Pert PRO MPD or a PANalytical Empyrean diffractometer using an incident beam of Cu radiation produced using an Optix long, fine-focus source. An elliptically graded multilayer mirror was used to focus Cu Kα X-rays through the specimen and onto the detector. Prior to the analysis, a silicon specimen (NIST SRM 640f) was analyzed to verify the observed position of the Si 111 peak is consistent with the NIST-certified position. A specimen of the sample was sandwiched between 3-μm-thick films and analyzed in transmission geometry. A beam-stop, short antiscatter extension, and antiscatter knife edge were used to minimize the background generated by air. Soller slits for the incident and diffracted beams were used to minimize broadening and asymmetry from axial divergence. Diffraction patterns were collected using a scanning position-sensitive detector (X'Celerator) located 240 mm from the specimen and Data Collector software v. 5.5. All images have the instrument labeled as X'Pert PRO MPD regardless of the instrument used.
XRPD patterns were collected with a PANalytical X'Pert PRO MPD diffractometer using an incident beam of Cu Kα radiation produced using a long, fine-focus source and a nickel filter. The diffractometer was configured using the symmetric Bragg-Brentano geometry. Prior to the analysis, a silicon specimen (NIST SRM 640f) was analyzed to verify the observed position of the Si 111 peak is consistent with the NIST-certified position. A specimen of the sample was prepared as a thin, circular layer centered on a silicon zero-background substrate. Antiscatter slits (SS) were used to minimize the background generated by air. Soller slits for the incident and diffracted beams were used to minimize broadening from axial divergence. Diffraction patterns were collected using a scanning position-sensitive detector (X'Celerator) located 240 mm from the sample and Data Collector software v. 5.5
Dynamic vapor sorption data was collected on a Surface Measurement System DVS Intrinsic instrument. The samples were not dried prior to analysis. Sorption and desorption data were collected over a range from 5% to 95% RH in 10% RH increments under a nitrogen purge. The equilibrium criteria used for the analyses were 0.001 dm/dt weight change in 5 minutes with a minimum step time of 30 minutes and maximum equilibration time of 180 minutes with a 3 minute data logging interval. Data were not corrected for the initial moisture content of the sample.

[2] = Solubility of the lysine salt in solvents for NMR analysis; format: physicochemical
Description: Use of TFA as solvent cleaves the sulfate group at the C3 position. ^1H-NMR analysis (CF3COOD) indicated a 1/1 ratio of lysine to cholesterol, as well as ~0.2 eq. triethylamine and some iPrOH.

Change of x-ray powder diffraction pattern after DVS (in words) ([1]; listed as crystalline 25HC3S hydroxyethylpyrrolidinium): different than before
Structure (SMILES): CC(CCCC(C)(C)O)C1CCC2C3CC=C4CC(OS(=O)(=O)O)CCC4(C)C3CCC12C (centres unmarked) [Salt #6]

Solubility in other solvents (in words) ([2]; any other common organic solvents or acidic or basic aqueous solutions): No solubility was detected
Structure (SMILES): C[C@H](CCCC(C)(C)O)[C@H]1CC[C@H]2[C@@H]3CC=C4C[C@@H](OS(=O)(=O)O)CC[C@]4(C)[C@H]3CC[C@]12C [Salt #14]
Solubility in trifluoroacetic acid (in words) ([2]; trifluoroacetic acid): only adequately soluble in trifluoroacetic acid

Structure (SMILES): CC(CCCC(C)(C)O)C1CCC2C3CC=C4CC(OS(=O)(=O)O)CCC4(C)C3CCC12C (centres unmarked) [Salt #5]
Change of x-ray powder diffraction pattern after DVS (in words) ([1]; listed as crystalline 25HC3S hydroxyethylammonium): appearance of extra x-ray powder diffraction peaks

Change of x-ray powder diffraction pattern after DVS (in words) ([1]; listed as crystalline 25HC3S potassium): not an appreciable change
Structure (SMILES): CC(CCCC(C)(C)O)C1CCC2C3CC=C4CC(OS(=O)(=O)O)CCC4(C)C3CCC12C (centres unmarked) [Salt #1]

Change of x-ray powder diffraction pattern after DVS (in words) ([1]; listed as crystalline 25HC3S tromethammonium): some potential differences
Structure (SMILES): CC(CCCC(C)(C)O)C1CCC2C3CC=C4CC(OS(=O)(=O)O)CCC4(C)C3CCC12C (centres unmarked) [Salt #8]

Change of x-ray powder diffraction pattern after DVS (in words) ([1]; listed as crystalline 25HC3S calcium): not an appreciable change
Structure (SMILES): CC(CCCC(C)(C)O)C1CCC2C3CC=C4CC(OS(=O)(=O)O)CCC4(C)C3CCC12C (centres unmarked) [Salt #2]

Change of x-ray powder diffraction pattern after DVS (in words) ([1]; listed as crystalline 25HC3S choline): does not appreciably change
Structure (SMILES): CC(CCCC(C)(C)O)C1CCC2C3CC=C4CC(OS(=O)(=O)O)CCC4(C)C3CCC12C (centres unmarked) [Salt #4]
